Residues, ends and D or L forms follow the SMILES beside them.
What was measured:
[1] = test system: HCVpp packaged with E1E2 from genotypes 1–6; experiment: HCVpp entry assay; assay type: cell-based, Hepatitis C virus; settings: HCVpp system and HCVcc system (Fig. 8A,B)
E1/E2 glycoproteins = experiment: Co-immunoprecipitation of E27 with E1 or E2; assay type: binding, Hepatitis C virus; settings: Myc-tagged E27 co-expressed with Flag-tagged E1 or E2, anti-Flag immunoprecipitation
Experimental: (§1) Figure 5 Effect of E27 on E1E2 heterodimerization. (a) Analysis of the E1E2 heterodimer by native-PAGE. A plasmid expressing the E27 peptide or a scramble control peptide was co-transfected into Huh7.5.1 cells with a plasmid encoding E1E2. The single E1 or E2 plasmid was used as the control. At 24 h post-transfection, cells were lysed for Western blotting using antibodies recognizing E1 or E2. (b,c) Interaction between the E27 and E1/E2 glycoproteins was determined by co-immunoprecipitation. A plasmid expressing Myc-tagged E27 was co-expressed with either Flag-tagged E1 (b) or Flag-tagged E2 (c). Cell lysates were immunoprecipitated with an anti-Flag antibody and detected with an anti-Myc antibody or an anti-E1- or E2 antibody. The empty Flag vector was used as a negative control.
(§2) For cell lysate preparation, monolayer cells were lysed on ice with lysis buffer supplemented with protease inhibitor cocktail (Sigma or Pierce). After electrophoresis, the separated proteins were transferred onto a nitrocellulose membrane (Bio-Rad, Hercules, CA), blocked with 10% milk for 1 h, and incubated with the primary antibody overnight at 4 °C. The secondary antibody used was a 1:2000 dilution of HRP-linked anti-IgG. The ECL reagent (Amersham Biosciences, Piscataway, NJ) was used as the substrate for detection. […]

[2] = test system: HCV entry into Huh7.5.1 cells; experiment: Time-of-addition assays; assay type: cell-based, Hepatitis C virus; settings: 1 μM
Experimental: Next, to further corroborate that E27 targets HCV fusion, we sought to define the steps of HCV cell entry targeted by E27. […] In addition, we added E27 to Huh7.5.1 cells at different time intervals during the early phase of HCV infection. Three different time-points assays were conducted: cells were exposed to HCV for 1 h at 4 °C (attachment/binding period). Virus was removed, and the cells were washed with serum-free medium and incubated at 4 °C for another 1 h (postattachment/binding period). The cells were then washed and incubated for 1 h at 37 °C (endocytosis/fusion period). Finally, the cells were washed and incubated in 10% FBS-containing culture medium for 24 h, E27 was added at one of these steps. […] Moreover, we compared inhibitory kinetics between E27 and bafilomycin A1, a well-recognized inhibitor of fusion during virus infection.
Huh7.5.1 cells were seeded at 8 × 10^4 cells/well in 24-well plates. The next day, virus inoculum was added to the plates, which were then incubated at 4 °C for 1 h. Unbound virus was removed by 3 washes with cold medium. The cells were then shifted to 37 °C and incubated. The specified inhibitors were added at specific time points during infection and were either removed by washing after two hours or added back as described in the Figure legends. Firefly luciferase activity was quantified at 48 h post-infection. The experiments were performed in triplicate.

E1E2 heterodimer = E1E2 heterodimer analysis by native-PAGE / Western blotting; assay type: cell-based, Hepatitis C virus; settings: E27 expressed from plasmid co-transfected with E1E2 in Huh7.5.1 cells, 24 h
Experimental: as §1, §2

[3] = test system: CLDN1, OCLND, CD81 and SR-BI in Huh7 cells; experiment: Co-receptor expression and localization (immunofluorescence, Western blotting); assay type: cell-based, human; settings: 1 μM 24 h (staining), 0, 0.1, 1 or 5 μM (Western blotting)
Experimental: Figure 4 E27 affects neither HCV co-receptor localization nor expression levels. (a) DMSO and E27 (1 μM) were added to Huh7 cells and allowed to incubate for 24 h. CLDN1, OCLND, CD81 and SR-BI were stained with corresponding antibodies (green), and nuclei (blue) were stained with DAPI. (b) Huh7 cells were treated with 0, 0.1, 1 or 5 μM of E27, and the expression levels of CLDN1, OCLND, CD81 and SR-BI were analyzed by Western blotting. The expression of β-actin was also analyzed as a loading control.
Immunostaining of Huh7 cells was performed using antibodies against CLDN1, OClD, SR-BI or CD81 as previously descriped. Images were captured on a Leica SPW5 confocal microscope. Nucleus was stained with DAPI.
as §2, with “detection. For immunoprecipitation-coupled Western blotting, cleared cell lysates were immunoprecipitated with anti-FLAG M2 affinity resin (Sigma) and washed with lysis buffer.” for “detection.”

[4] = test system: VSV-G-pseudotyped lentivirus; assay type: cell-based
[5] = target: HCV glycoprotein E1E2-mediated membrane fusion (Hepatitis C virus genotype 1a, UniProt P27958); experiment: cell-based; assay type: cell-based, Hepatitis C virus (strain H77); settings: cell-cell fusion assay (Supplementary Fig. S3)
[6] = test system: HCV glycoprotein E1E2-mediated membrane fusion; experiment: cell-based; assay type: cell-based, Hepatitis C virus (strain H77)
Huh7.5.1 cells = experiment: Cytotoxicity assay (MTT); assay type: cell-based, human
Experimental: Huh7.5.1 cells were treated with E27 for the indicated concentration and period of time. After removal of E27, cells were incubated for an additional 48 h in 24-well plates. Cytotoxicity was determined using the MTT Cell Viability Assay Kit from R&D Systems (Minneapolis, MN, USA).

JFH-1 HCVcc = experiment: Virus pre-treatment (virocidal) assay; settings: 1 μM, 2 h at 37 °C, unbound peptide removed by ultracentrifugation, then infection of Huh7.5.1 cells
From the text: After removal of the unbound peptide, the viruses were resuspended and used to infect naïve Huh7.5.1 cells.

[7] = test system: HCV full-length genotype 1b replicon-containing cell line (2-3+); assay type: cell-based, Hepatitis C virus; settings: replicon cells, 1 μM, 48 h

Sequence of HCV glycoprotein E1E2-mediated membrane fusion (Hepatitis C virus genotype 1a, UniProt P27958) (P27958 384-746): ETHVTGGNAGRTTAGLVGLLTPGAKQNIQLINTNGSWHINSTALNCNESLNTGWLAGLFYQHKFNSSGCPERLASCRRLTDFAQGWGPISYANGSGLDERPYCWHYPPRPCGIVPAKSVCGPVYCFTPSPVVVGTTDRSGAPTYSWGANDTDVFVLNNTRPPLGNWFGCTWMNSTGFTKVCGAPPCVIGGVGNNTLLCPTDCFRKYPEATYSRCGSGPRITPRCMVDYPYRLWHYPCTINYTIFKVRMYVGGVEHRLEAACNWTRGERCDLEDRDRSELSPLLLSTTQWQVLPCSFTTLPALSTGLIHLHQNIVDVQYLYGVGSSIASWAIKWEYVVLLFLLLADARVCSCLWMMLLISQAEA
Sequence of HCV glycoprotein E1E2-mediated membrane fusion (Hepatitis C virus genotype 1a, UniProt P27958) (P27958 192-383): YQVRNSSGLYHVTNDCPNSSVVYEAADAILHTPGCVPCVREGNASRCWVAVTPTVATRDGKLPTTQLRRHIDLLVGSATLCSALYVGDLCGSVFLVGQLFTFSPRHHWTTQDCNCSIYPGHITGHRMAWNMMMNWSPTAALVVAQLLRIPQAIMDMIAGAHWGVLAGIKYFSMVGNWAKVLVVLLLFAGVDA

Compound | antiviral activity compared to the parental peptide [1] | interaction with E1 or E2 (E1/E2 glycoproteins) | inhibition when added during the attachment or binding step ([2]; 1 h at 4 °C) | inhibition when added together with the virus or within 2 h of infection ([2]; HCVpp, Huh7.5.1 cells, luciferase at 48 h) | inhibition when added prior to infection ([2]; added 2 or 4 h prior to HCVpp inoculation and removed, luciferase at 48 h) | inhibition of HCV infection when added during the late entry step ([2]; endocytosis/fusion period, 1 h at 37 °C) | effect on E1E2 heterodimers (E1E2 heterodimer) | effect on subcellular distribution and expression of co-receptors [3] | inhibition of entry of VSV-G–pseudotyped lentivirus [4] | suppression of wild-type E1E2-mediated fusion [5] | susceptibility of E1-1 and E1-9 mutated E1E2 to E27 in the fusion assay [6] | CC50 (Huh7.5.1 cells) [µM] | virocidal effect on HCV (JFH-1 HCVcc) | effect on intracellular HCV core protein level ([7]; Western blotting) | effect on HCV RNA replication ([7]; qRT-PCR)
CSFTTLP ALSTGLIHLHQNIVDVQYLYGV [E27-2, E27 shortened by 6 aa from the N-terminus, residues 7-35] | slightly increased |  |  |  |  |  |  |  |  |  |  |  |  |  | 
CC[C@H](C)[C@H](NC(=O)[C@H](CC(C)C)NC(=O)CNC(=O)[C@@H](NC(=O)[C@H](CO)NC(=O)[C@H](CC(C)C)NC(=O)[C@H](C)NC(=O)[C@@H]1CCCN1C(=O)[C@H](CC(C)C)NC(=O)[C@@H](NC(=O)[C@@H](NC(=O)[C@H](Cc1ccccc1)NC(=O)[C@H](CO)NC(=O)[C@H](CS)NC(=O)[C@@H]1CCCN1C(=O)[C@H](CC(C)C)NC(=O)[C@@H](NC(=O)[C@H](CCC(N)=O)NC(=O)[C@H](Cc1c[nH]c2ccccc12)NC(=O)[C@@H](N)CCC(N)=O)C(C)C)[C@@H](C)O)[C@@H](C)O)[C@@H](C)O)C(=O)N[C@@H](Cc1c[nH]cn1)C(=O)N[C@@H](CC(C)C)C(=O)N[C@@H](Cc1c[nH]cn1)C(=O)N[C@@H](CCC(N)=O)C(=O)N[C@@H](CC(N)=O)C(=O)N[C@H](C(=O)N[C@H](C(=O)N[C@@H](CC(=O)O)C(=O)N[C@H](C(=O)N[C@@H](CCC(N)=O)C(=O)N[C@@H](Cc1ccc(O)cc1)C(=O)N[C@@H](CC(C)C)C(=O)N[C@@H](Cc1ccc(O)cc1)C(=O)NCC(=O)N[C@H](C(=O)O)C(C)C)C(C)C)C(C)C)[C@@H](C)CC [E27] (H-QWQVLPCSFTTLPALSTGLIHLHQNIVDVQYLYGV-OH; N-terminus and C-terminus assumed) |  | neither E1 nor E2 interact independently with E27 | no inhibition was observed | best inhibitory activity | no inhibition was observed | strong inhibition | significant decrease | no detectable effect | did not inhibit | efficiently suppressed | markedly increased resistance | 180.3 | no virocidal effect | no impact | no impact
